From BindingDB's records for doi:10.1021/jm00055a010 (Salk Institute, 1993)

Target: T1, Neuropeptide Y receptor type 1 (Homo sapiens, UniProt P25929)
T1 sequence (P25929 whole entry): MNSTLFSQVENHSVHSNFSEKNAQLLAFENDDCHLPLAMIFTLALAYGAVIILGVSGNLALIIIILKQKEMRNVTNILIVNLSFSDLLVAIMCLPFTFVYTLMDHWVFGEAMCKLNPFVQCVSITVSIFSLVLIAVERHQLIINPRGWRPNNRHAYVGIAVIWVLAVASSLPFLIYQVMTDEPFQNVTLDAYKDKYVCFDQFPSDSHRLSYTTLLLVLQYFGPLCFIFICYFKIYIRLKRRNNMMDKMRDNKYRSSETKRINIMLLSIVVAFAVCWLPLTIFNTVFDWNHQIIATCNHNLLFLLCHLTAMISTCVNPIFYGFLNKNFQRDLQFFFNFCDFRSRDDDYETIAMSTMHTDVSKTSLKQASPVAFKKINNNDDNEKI
Experiment: Tested against neuropeptide Y1 receptors using SK-N-MC human neuroblastoma cells

Q: With CC[C@H](C)[C@H](NC(=O)[C@H](CC(C)C)NC(=O)[C@H](CC(N)=O)NC(=O)[C@@H](NC(=O)[C@H]1CNC(=O)CC[C@H](NC(=O)[C@@H](N)Cc2ccc(O)cc2)C(=O)N[C@@H](CO)C(=O)N[C@@H](CCCCN)C(=O)N2CCC[C@H]2C(=O)NCC(=O)N[C@@H](CCCN=C(N)N)C(=O)N[C@@H](Cc2c[nH]cn2)C(=O)N1)[C@@H](C)CC)C(=O)N[C@H](C(=O)N[C@@H](CCCN=C(N)N)C(=O)N[C@@H](CCC(N)=O)C(=O)N[C@@H](CCCN=C(N)N)C(=O)N[C@@H](Cc1ccc(O)cc1)C(N)=O)[C@@H](C)O as the compound, how does the Ki read?
A: Its Ki is greater than 1000 nM.
